Data taken from PMC10693084, “Novel 8-Methoxycoumarin-3-Carboxamides with potent anticancer activity against liver cancer via targeting caspase-3/7 and β-tubulin polymerization” (BMC Chemistry, 2023).

Key:
caspase-3/7 = assay: Caspase-3/7 green flow cytometric assay in HepG2 cells; assay type: cell-based, human; conditions: HepG2 cells treated with compound
Excerpt: Caspase-3 is a cysteine-aspartic protease protein that facilitates the enzymatic cleavage of specific target proteins. It consists of two subunits, specifically a 12-kDa subunit and a 17-kDa subunit, which are characterized by the presence of three and five thiol functions, respectively. […] The crucial involvement of the terminal caspase-3/7 activation is observed in the initiation of apoptosis and subsequent cell demise in neoplastic cells. To gain more insight into the apoptotic mode of action for compound 5, we assessed the active caspase-3/7 levels in HepG2 cells utilizing a green flow cytometric assay. […] Compared to the control group of untreated HepG2 cells, there was a remarkable 5.6-fold rise in the levels of active Caspase-3/7 upon treatment with compound 5. […] These findings provide valuable insights into the potential mechanism of action of compound 5 as an anti-cancer agent. Activation of Caspase-3/7 is a pivotal step in the apoptotic pathway, leading to the programmed destruction of cancer cells. […]
The HepG2 cell line was subjected to treatment with compound 5, and subsequently, an analysis was conducted using the Cell Event caspase-3/7 green flow assay. […] Subsequently, the cells were assessed utilizing the BD FACS CALIBER flow cytometer.

β-tubulin = biological target: T1, β-tubulin (Homo sapiens, UniProt P07437); assay: β-tubulin polymerization activity (TUB β ELISA, 450 nm) in HepG2 cells; assay type: cell-based; conditions: HepG2, 0.9 µM, 24 h
T1 construct: impact of compound 5 on β-tubulin polymerization activity in HepG2 cells; endogenous in cells; host or cells: HepG2
T1 sequence (P07437 whole entry): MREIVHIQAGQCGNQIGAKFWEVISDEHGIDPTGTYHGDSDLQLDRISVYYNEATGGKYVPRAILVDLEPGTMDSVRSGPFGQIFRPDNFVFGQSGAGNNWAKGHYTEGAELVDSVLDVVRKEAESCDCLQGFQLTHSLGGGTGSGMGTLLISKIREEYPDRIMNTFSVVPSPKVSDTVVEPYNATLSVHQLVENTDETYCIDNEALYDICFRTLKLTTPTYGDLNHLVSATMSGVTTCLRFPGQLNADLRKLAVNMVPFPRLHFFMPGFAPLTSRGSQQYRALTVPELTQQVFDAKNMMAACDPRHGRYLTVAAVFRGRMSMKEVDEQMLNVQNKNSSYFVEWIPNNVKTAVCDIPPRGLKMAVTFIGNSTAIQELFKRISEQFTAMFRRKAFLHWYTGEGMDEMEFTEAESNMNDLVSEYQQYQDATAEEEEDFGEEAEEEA
T1 sequence (P68363 whole entry partner): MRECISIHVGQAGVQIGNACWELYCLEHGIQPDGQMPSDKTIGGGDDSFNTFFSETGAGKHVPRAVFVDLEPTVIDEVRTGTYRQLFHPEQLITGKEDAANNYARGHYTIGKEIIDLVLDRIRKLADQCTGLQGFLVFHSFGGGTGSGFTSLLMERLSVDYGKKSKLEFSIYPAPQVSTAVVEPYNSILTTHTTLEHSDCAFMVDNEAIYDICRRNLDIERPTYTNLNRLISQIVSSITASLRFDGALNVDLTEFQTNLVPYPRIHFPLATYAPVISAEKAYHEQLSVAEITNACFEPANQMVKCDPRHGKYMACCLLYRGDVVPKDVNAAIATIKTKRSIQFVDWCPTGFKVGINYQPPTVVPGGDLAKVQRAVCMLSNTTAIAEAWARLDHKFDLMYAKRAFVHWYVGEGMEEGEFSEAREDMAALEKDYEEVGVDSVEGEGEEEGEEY
Excerpt: Microtubules are widely recognized as a significant target for anti-cancer therapy due to their pivotal involvement in cellular division and the preservation of cellular morphology. The impact of numerous anti-cancer agents is achieved through their ability to disrupt microtubule dynamics. This disruption ultimately results in the deregulation of mitotic spindles, leading to cell cycle arrest in cancer cells and subsequently inducing apoptosis. Toward this end, we further aimed to assess investigated the impact of compound 5 on β-tubulin polymerization activity in HepG2 cells. Thus, HepG2 cells were treated with compound 5 at (0.9 µM) for a duration of 24 h and the activity of β-tubulin polymerization was explored using spectrophotometry at 450 nm. […] These findings indicate that compound 5 interferes with the process of microtubule assembly, thereby disrupting the proper formation of mitotic spindles. […]
Dulbecco's Modified Eagle Medium (DMEM) (Invitrogen/Life Technologies) containing 10% fetal bovine serum (FBS) (Hyclone), 10 µg/mL of insulin (Sigma), and 1% penicillin–streptomycin was used for culturing the HepG2 cell line. […] This color change was then quantitatively measured using spectrophotometry at a specific wavelength of 450 nm ± 10 nm. […]

Compound: COc1ccc(Br)c2cc(C(N)=O)c(=O)oc12 [Compound 5, 5-Bromo-8-methoxycoumarin-3-carboxamide]
- rise in levels of active Caspase-3/7 vs untreated HepG2 cells (caspase-3/7): 5.6 fold
- reduction in the concentration of β-tubulin polymerization vs untreated HepG2 cells (β-tubulin): threefold
